Experimental findings from article PMC6466835 (ACS Medicinal Chemistry Letters, 2019) are described below.

Series [1] deals with BxPC-3 pancreatic carcinoma cells. Kind of series: MTT cytotoxicity assay, BxPC-3. It counts as cell-based. Conditions: BxPC-3 cells, L-1 versus D-1.
The test system of series [2] is supercoiled plasmid pBR322. In words: DNA cleavage assay. It counts as biochemical.
Series [3] is described as follows: Parallel artificial membrane permeation assay. Format: in vitro ADME. The conditions noted are these: incubation for 1 h, PBS pH 7.4.
In series [4] the test system is double-stranded oligodeoxynucleotide (dsDNA). In words: ESI-MS analysis of DNA alkylation. Format: biochemical. Conditions: 50 μM compound, 2 μM dsDNA.
[5] abbreviates: 2 h at 37 °C, highest concentration 50 μM.

As to `CCCCN1CCC[C@@H](Cl)C1` [L-1], the eudismic ratio in series [1] was around 40. Also, the DNA cleavage activity entry in series [2] (18 h at 37 °C, 5 and 50 μM) is “more active than the racemate 1”.

On to `CCCCN1CCC[C@H](Cl)C1` [D-1], for which, in series [2] (18 h at 37 °C, 5 and 50 μM), the DNA cleavage activity entry was “inactive even after prolonged incubation”.

With `CCCCN1CC(Cl)CC(C)(C)C1` (stereo not shown) [Compound 2], the “PAMPA permeation, in words” value in series [3] is “barely detected in the acceptor compartment”. In addition, the “DNA modifications detected by ESI-MS” value in series [4] (2 h at 37 °C) is “additional peaks corresponding to 3-chloropiperidine–DNA adducts were detected”; in series [4] (18 h at 37 °C) it was “formation of adducts and of abasic lesions”. For the same molecule, the DNA cleavage activity result in series [2] (setting [5]) is reported as “caused the conversion of supercoiled DNA into the OC form”.

Regarding `CCCCN1CCCC(Cl)C1` (stereo not shown) [Compound 1], the “DNA modifications detected by ESI-MS” value in series [4] (2 h at 37 °C) was “exclusively the signal corresponding to the unreacted DNA substrate”; in series [4] (18 h at 37 °C), “formation of adducts and of abasic lesions”. Also, in series [2] (2 h at 37 °C, 5 and 50 μM), the DNA cleavage activity result was “inactive”.

Take `O=C(O)CCCc1ccc(N(CCCl)CCCl)cc1` [chlorambucil, reference compound]: the DNA cleavage activity result in series [2] (2 h at 37 °C, 5 and 50 μM) is “inactive at all concentrations”.

Consider `CC1(C)CC(Cl)CN(Cc2ccccc2)C1` (stereo not shown) [Compound 3], for which, in series [3], the “PAMPA permeation, in words” value was “barely detected in the acceptor compartment”. Also, the DNA cleavage activity result in series [2] (setting [5]) is reported as “caused the conversion of supercoiled DNA into the OC form”.
